From patent US20090131470A1, “PYRAZOLE-SUBSTITUTED BENZIMIDAZOLE DERIVATIVES FOR USE IN THE TREATMENT OF CANCER AND AUTOIMMUNE DISORDERS” (priority 2005, published 2009)

Key:
Assay type in all cases: biochemical
PDK1 = biological target: T1, PDK1 (Homo sapiens, UniProt O15530); assay: PDK1 kinase assay (33P peptide phosphorylation); details: 0.01 mM ATP, 60 min at 30° C.; read-out: PDK-1 IC50
T1 sequence (O15530 1-556): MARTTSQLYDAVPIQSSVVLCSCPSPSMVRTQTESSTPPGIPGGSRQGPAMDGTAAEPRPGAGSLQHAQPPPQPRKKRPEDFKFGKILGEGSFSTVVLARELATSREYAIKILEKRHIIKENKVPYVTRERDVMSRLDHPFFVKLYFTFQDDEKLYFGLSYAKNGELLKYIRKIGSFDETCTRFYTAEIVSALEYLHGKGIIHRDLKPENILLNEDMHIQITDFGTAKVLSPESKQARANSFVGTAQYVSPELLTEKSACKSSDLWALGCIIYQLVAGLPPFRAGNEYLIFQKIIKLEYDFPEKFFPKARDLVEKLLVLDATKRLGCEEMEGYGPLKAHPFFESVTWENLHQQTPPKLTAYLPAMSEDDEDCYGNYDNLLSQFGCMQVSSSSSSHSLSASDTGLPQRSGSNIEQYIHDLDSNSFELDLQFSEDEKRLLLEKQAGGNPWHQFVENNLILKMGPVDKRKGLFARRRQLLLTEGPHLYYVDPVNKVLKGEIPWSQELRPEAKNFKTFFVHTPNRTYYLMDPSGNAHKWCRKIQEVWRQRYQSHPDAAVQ
Experimental: (§1) The assay mixture containing the inhibitor and PDK1 enzyme was mixed together in a microtiter plate in a final volume of 50 μl and incubated for 60 min at 30° C. The assay mixture contained 0.01 mM unlabeled ATP, 0.01 μCi/μl ^33P-γ-ATP, 0.075 mM peptide, 0.1 mg/ml BSA, 7.5 mM magnesium acetate, 0.05M Tris.HCl, pH 7.5, 0.5% 2-mercaptoethanol. The reaction was stopped by adding 50 μl of 50 mM phosphoric acid. 90 μl of the mixture were transferred to a pre-wetted 96-well Multiscreen MAPHNOB filtration plate (Millipore) and filtered on a vacuum manifold. The filter plate was washed with 3 successive additions of 200 μl 50 mM phosphoric acid and then with 100 μl methanol. The filtration plate was dried for 10 min at 65° C., scintillant added and phosphorylated peptide quantified in a scintillation counter (Trilux, PerkinElmer)

GST-Chk1 enzyme = biological target: T2, GST-Chk1 enzyme (Homo sapiens, UniProt O14757); assay: Chk1 kinase assay (33P Chktide phosphorylation); details: 0.01 mM ATP, 40 minutes at 30° C.; read-out: CHK-1 IC50
T2 sequence (O14757 1-476): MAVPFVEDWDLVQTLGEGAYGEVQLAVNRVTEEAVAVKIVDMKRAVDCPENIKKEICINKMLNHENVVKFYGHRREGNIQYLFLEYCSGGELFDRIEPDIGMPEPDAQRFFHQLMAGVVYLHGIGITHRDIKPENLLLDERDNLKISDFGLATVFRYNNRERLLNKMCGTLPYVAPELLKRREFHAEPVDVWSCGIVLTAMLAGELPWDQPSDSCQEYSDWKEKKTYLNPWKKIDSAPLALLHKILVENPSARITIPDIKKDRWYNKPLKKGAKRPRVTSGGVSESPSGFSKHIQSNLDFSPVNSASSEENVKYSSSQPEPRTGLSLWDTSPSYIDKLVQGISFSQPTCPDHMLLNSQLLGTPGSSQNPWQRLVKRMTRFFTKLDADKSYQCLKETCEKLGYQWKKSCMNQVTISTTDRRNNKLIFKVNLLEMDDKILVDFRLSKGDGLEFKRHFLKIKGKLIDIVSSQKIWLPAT
Experimental: as §1, with “Chk1” for “PDK1”, “40 minutes” for “60 min”, “The assay mixture contained 0.01 mM unlabeled ATP, 0.01 μCi/μl ^33P-γ-ATP, 0.075 mM peptide, 0.1 mg/ml BSA, 7.5 mM magnesium acetate, 0.05M Tris.HCl, pH 7.5, 0.5% 2-mercaptoethanol.” left out, “was” for “were”, “multi-screen” for “Multiscreen”

[1] = biological target: CDK-2 enzyme, complexed with cyclin A (Homo sapiens, UniProt P24941); assay: CDK2 kinase assay (33P peptide phosphorylation); details: 0.1 mM ATP, cyclin A complex
Experimental: as §1, with “and CDK-2 enzyme, complexed with cyclin A (0.4 U/ml)” for “and PDK1 enzyme”, “for 40” for “for 60”, “contained 0.1” for “contained 0.01”, “^33P-γ-ATP, 0.03” for “^33P-γ-ATP, 0.075”, “acetate, 50 mM HEPES-NaOH,” for “acetate, 0.05M Tris.HCl,”, “pH 7.5.” for “pH 7.5, 0.5% 2-mercaptoethanol.”

PKA = biological target: T3, PKA (Homo sapiens, UniProt P17612); assay: PKA kinase assay (Kemptide substrate); details: 100 μM ATP
T3 construct: purchased Upstate
Experimental: as §1, with “and CDK-2 enzyme, complexed with cyclin A (0.4 U/ml)” for “and PDK1 enzyme”, “for 40” for “for 60”, “contained 0.1” for “contained 0.01”, “^33P-γ-ATP, 0.03” for “^33P-γ-ATP, 0.075”, “acetate, 50 mM HEPES-NaOH,” for “acetate, 0.05M Tris.HCl,”, “pH 7.5.” for “pH 7.5, 0.5% 2-mercaptoethanol.”
The PKA assay was incubated at 30° C. for 30 minutes.

Akt1 = biological target: T4, Akt1 (Homo sapiens, UniProt P31749); assay: Akt1 kinase assay (Histone H1 substrate); details: 200 μM ATP, read-out: AKT-1 IC50
T4 construct: purchased Upstate
Experimental: Assays for the cyclin dependent kinase activity were carried out by monitoring the phosphorylation of a synthetic peptide, HATTPKKKRK. The assay mixture containing the inhibitor and CDK-2 enzyme, complexed with cyclin A (0.4 U/ml) was mixed together in a microtiter plate in a final volume of 50 μl and incubated for 40 min at 30° C. The assay mixture contained 0.1 mM unlabeled ATP, 0.01 μCi/μl ^33P-γ-ATP, 0.03 mM peptide, 0.1 mg/ml BSA, 7.5 mM magnesium acetate, 50 mM HEPES-NaOH, pH 7.5. The reaction was stopped by adding 50 μl of 50 mM phosphoric acid. 90 μl of the mixture were transferred to a pre-wetted 96-well Multiscreen MAPHNOB filtration plate (Millipore) and filtered on a vacuum manifold. The filter plate was washed with 3 successive additions of 200 μl 50 mM phosphoric acid and then with 100 μl methanol. The filtration plate was dried for 10 min at 65° C., scintillant added and phosphorylated peptide quantified in a scintillation counter (Trilux, PerkinElmer)
Protocol for the Akt assay is the same for CDK2 except that, 3 nM Akt1 (Upstate) was used with Histone H1 as substrate with a final ATP concentration of 200 μM. The reaction was incubated at 30° C. for 40 minutes.

T4 sequence (P31749 whole entry, species assumed): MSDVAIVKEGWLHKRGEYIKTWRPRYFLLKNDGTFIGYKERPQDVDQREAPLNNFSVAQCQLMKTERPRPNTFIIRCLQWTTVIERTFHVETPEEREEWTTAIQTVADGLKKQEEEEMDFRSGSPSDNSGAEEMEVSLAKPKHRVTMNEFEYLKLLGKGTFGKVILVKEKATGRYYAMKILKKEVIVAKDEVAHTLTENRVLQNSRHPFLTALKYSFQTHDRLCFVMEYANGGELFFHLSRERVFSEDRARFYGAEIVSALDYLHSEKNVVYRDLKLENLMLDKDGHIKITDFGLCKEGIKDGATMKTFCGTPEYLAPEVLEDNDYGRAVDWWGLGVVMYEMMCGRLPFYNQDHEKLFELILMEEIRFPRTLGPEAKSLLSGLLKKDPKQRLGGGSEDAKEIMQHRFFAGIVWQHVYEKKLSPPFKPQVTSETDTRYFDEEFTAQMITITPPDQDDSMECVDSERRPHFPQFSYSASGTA

Structure (SMILES): Cc1[nH]nc(-c2nc3ccc(C(C)C)cc3[nH]2)c1C(=O)NC1CCN(C)CC1 [Example 46]
- IC50 (PDK1): 0.036 µM
- IC50 (GST-Chk1 enzyme): 0.014 µM
- IC50 [1]: 24.2 µM
- IC50 (PKA): 3.8 µM
- IC50 (Akt1): > 10 µM

Structure (SMILES): Cc1[nH]nc(-c2nc3ccc(C(C)C)cc3[nH]2)c1C(=O)N[C@@H]1CN2CCC1CC2 [Example 43]
- IC50 (PDK1): 0.022 µM
- IC50 (GST-Chk1 enzyme): 0.026 µM
- IC50 [1]: 14.7 µM
- IC50 (PKA): 2.02 µM
- IC50 (Akt1): > 10 µM
